According to PubChem BioAssay AID248 (DTP/NCI, 2004):
Values joined by “and” are separate entries in the source; they are usually repeats but may differ in a detail not shown here. Equal entries are not always repeated. Toxic doses and inconclusive results are not listed.

Tested on: L1210 leukemia ip in BDF1 mice, survival T/C
Experiment: NCI In Vivo Anticancer Drug Screen. Data for tumor model L1210 Leukemia (intraperitoneal) in B6D2F1 (BDF1) mice
Settings: endpoint: mean survival time, higher = longer survival
Summary of the method: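 Mice bearing the transplanted tumor received compound or vehicle. Survival of the treated group was divided by that of the vehicle-treated control group to give the ratio.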

[1] = dose: 100.0 mg/kg/injection, schedule: Q01DX001 (ip), vehicle: saline
[2] = dose: 200.0 mg/kg/injection, schedule: Q01DX001 (ip), vehicle: saline
[3] = dose: 400.0 mg/kg/injection, schedule: Q01DX001 (ip), vehicle: saline
[4] = dose: 100.0 mg/kg/injection, schedule: Q04DX003 (ip), vehicle: saline with Tween-80
[5] = dose: 200.0 mg/kg/injection, schedule: Q04DX003 (ip), vehicle: saline with Tween-80
[6] = dose: 400.0 mg/kg/injection, schedule: Q04DX003 (ip), vehicle: saline with Tween-80
[7] = dose: 100.0 mg/kg/injection, schedule: Q04DX003 (ip), vehicle: Klucel (hydroxypropylcellulose) (HPC)
[8] = dose: 200.0 mg/kg/injection, schedule: Q04DX003 (ip), vehicle: Klucel (hydroxypropylcellulose) (HPC)
[9] = dose: 400.0 mg/kg/injection, schedule: Q04DX003 (ip), vehicle: Klucel (hydroxypropylcellulose) (HPC)
[10] = dose: 100.0 mg/kg/injection, schedule: Q04DX003 (ip), vehicle: saline
[11] = dose: 200.0 mg/kg/injection, schedule: Q04DX003 (ip), vehicle: saline

CCCSc1nc(N)nc2nc[nH]c12
T/C (dose: 1.25 mg/kg/injection, schedule: Q01DX Z (ip), vehicle: carboxymethylcellulose (CMC)): 91 % of control | T/C (dose: 2.5 mg/kg/injection, schedule: Q01DX Z (ip), vehicle: carboxymethylcellulose (CMC)): 114 % of control | T/C (dose: 2.9 mg/kg/injection, schedule: Q01DX Z (ip), vehicle: carboxymethylcellulose (CMC)): 114 % of control | T/C (dose: 4.4 mg/kg/injection, schedule: Q01DX Z (ip), vehicle: carboxymethylcellulose (CMC)): 116 % of control | T/C (dose: 5.0 mg/kg/injection, schedule: Q01DX Z (ip), vehicle: carboxymethylcellulose (CMC)): 118 % of control | T/C (dose: 8.3 mg/kg/injection, schedule: Q01DX009 (ip), vehicle: saline): 102 % of control | T/C (dose: 12.0 mg/kg/injection, schedule: Q01DX009 (ip), vehicle: saline): 105 % of control | T/C (dose: 20.0 mg/kg/injection, schedule: Q01DX Z (ip), vehicle: carboxymethylcellulose (CMC)): 151 % of control and 168 % of control | T/C (dose: 29.0 mg/kg/injection, schedule: Q01DX009 (ip), vehicle: Klucel (hydroxypropylcellulose) (HPC)): 121 % of control | T/C (dose: 40.0 mg/kg/injection, schedule: Q01DX Z (ip), vehicle: carboxymethylcellulose (CMC)): 150 % of control and 153 % of control and 156 % of control | T/C (dose: 62.0 mg/kg/injection, schedule: Q01DX001 (ip), vehicle: other): 108 % of control | T/C (dose: 62.0 mg/kg/injection, schedule: Q## X001 (ip), vehicle: other): 119 % of control | T/C (dose: 90.0 mg/kg/injection, schedule: Q01DX Z (ip), vehicle: carboxymethylcellulose (CMC)): 105 % of control | T/C (dose: 125.0 mg/kg/injection, schedule: Q01DX001 (ip), vehicle: other): 118 % of control and 88 % of control | T/C (dose: 125.0 mg/kg/injection, schedule: Q## X001 (ip), vehicle: other): 123 % of control | T/C (dose: 135.0 mg/kg/injection, schedule: Q01DX Z (ip), vehicle: carboxymethylcellulose (CMC)): 92 % of control | T/C (dose: 160.0 mg/kg/injection, schedule: Q01DX Z (ip), vehicle: carboxymethylcellulose (CMC)): 151 % of control | T/C (dose: 200.0 mg/kg/injection, schedule: Q01DX009 (ip), vehicle: saline): 90 % of control | T/C (dose: 250.0 mg/kg/injection, schedule: Q01DX001 (ip), vehicle: other): 120 % of control and 124 % of control | T/C (dose: 300.0 mg/kg/injection, schedule: Q01DX001 (ip), vehicle: other): 115 % of control and 118 % of control | T/C (dose: 300.0 mg/kg/injection, schedule: Q## X001 (ip), vehicle: other): 117 % of control | T/C (dose: 400.0 mg/kg/injection, schedule: Q01DX001 (ip), vehicle: other): 101 % of control | T/C (dose: 400.0 mg/kg/injection, schedule: Q## X001 (ip), vehicle: other): 101 % of control | T/C (dose: 500.0 mg/kg/injection, schedule: Q## X001 (ip), vehicle: other): 203 % of control

CC(=O)CC(=O)Nc1cc(C(F)(F)F)ccc1Cl
T/C [1]: 97 % of control | T/C [2]: 101 % of control | T/C [3]: 101 % of control

CCNC(=O)c1cc(NC(=O)Nc2ccc(C3=NCCN3)cc2)cc(NC(=O)Nc2ccc(C3=NCCN3)cc2)c1
T/C (dose: 62.0 mg/kg/injection, schedule: Q01DX Z (ip), vehicle: carboxymethylcellulose (CMC)): 102 % of control | T/C (dose: 125.0 mg/kg/injection, schedule: Q01DX Z (ip), vehicle: carboxymethylcellulose (CMC)): 103 % of control | T/C (dose: 250.0 mg/kg/injection, schedule: Q01DX Z (ip), vehicle: carboxymethylcellulose (CMC)): 107 % of control | T/C (dose: 500.0 mg/kg/injection, schedule: Q01DX Z (ip), vehicle: carboxymethylcellulose (CMC)): 102 % of control

OC1C(OCc2ccccc2)OC(COCc2ccccc2)C(OC2OC(COCc3ccccc3)C(OCc3ccccc3)C(OCc3ccccc3)C2OCc2ccccc2)C1OCc1ccccc1 (centres undefined)
T/C (dose: 200.0 mg/kg/injection, schedule: Q01DX009 (ip), vehicle: alcohol): 94 % of control | T/C (dose: 400.0 mg/kg/injection, schedule: Q01DX009 (ip), vehicle: alcohol): 86 % of control

CC1CN(c2ccncc2N)CCN1c1ccc(Cl)cc1 (centres undefined)
T/C [4]: 110 % of control | T/C [5]: 105 % of control | T/C [6]: 105 % of control

O=C(Nc1ccc(NC2=NCCN2)cc1)c1cccc(C(=O)Nc2ccc(NC3=NCCN3)cc2)c1
T/C (dose: 3.75 mg/kg/injection, schedule: Q01DX Z (ip), vehicle: methylcellulose (MC)): 100 % of control | T/C (dose: 7.5 mg/kg/injection, schedule: Q01DX Z (ip), vehicle: methylcellulose (MC)): 104 % of control | T/C (dose: 15.0 mg/kg/injection, schedule: Q01DX Z (ip), vehicle: methylcellulose (MC)): 116 % of control | T/C (dose: 30.0 mg/kg/injection, schedule: Q01DX Z (ip), vehicle: methylcellulose (MC)): 161 % of control

COc1ccc(OCCOC(=O)Nc2ccccc2C(F)(F)F)cc1
T/C [7]: 105 % of control | T/C [8]: 90 % of control | T/C [9]: 90 % of control

ClC1C2CC3C(C2)C13 (centres undefined)
T/C (dose: 100.0 mg/kg/injection, schedule: Q01DX001 (ip), vehicle: carboxymethylcellulose (CMC)): 95 % of control | T/C (dose: 200.0 mg/kg/injection, schedule: Q01DX001 (ip), vehicle: carboxymethylcellulose (CMC)): 95 % of control | T/C (dose: 400.0 mg/kg/injection, schedule: Q01DX001 (ip), vehicle: carboxymethylcellulose (CMC)): 95 % of control

c1ccc(-c2nnnn2-c2ccccc2)cc1
T/C (dose: 100.0 mg/kg/injection, schedule: Q01DX001 (ip), vehicle: saline with Tween-80): 102 % of control | T/C (dose: 200.0 mg/kg/injection, schedule: Q01DX001 (ip), vehicle: saline with Tween-80): 98 % of control | T/C (dose: 400.0 mg/kg/injection, schedule: Q01DX001 (ip), vehicle: saline with Tween-80): 105 % of control

CC(C)(C)N(N)Cc1ccccc1
T/C [1]: 106 % of control | T/C [2]: 95 % of control | T/C [3]: 104 % of control

COc1ccc(C(C)C(C)=O)cc1 (centres undefined)
T/C (dose: 50.0 mg/kg/injection, schedule: Q01DX009 (ip), vehicle: saline with Tween-80): 95 % of control

CCOC(=O)CC(=O)c1cccc(S(=O)(=O)F)c1
T/C (dose: 100.0 mg/kg/injection, schedule: Q01DX009 (ip), vehicle: saline with Tween-80): 98 % of control | T/C [4]: 104 % of control | T/C (dose: 200.0 mg/kg/injection, schedule: Q01DX009 (ip), vehicle: saline with Tween-80): 103 % of control | T/C [5]: 98 % of control | T/C (dose: 400.0 mg/kg/injection, schedule: Q01DX009 (ip), vehicle: saline with Tween-80): 92 % of control | T/C [6]: 102 % of control

OC1CCC(O)CC1 (centres undefined)
T/C [10]: 100 % of control | T/C [11]: 100 % of control | T/C (dose: 400.0 mg/kg/injection, schedule: Q04DX003 (ip), vehicle: saline): 115 % of control

CC[Si](CC)(c1ccccc1)N1CC1
T/C (dose: 25.0 mg/kg/injection, schedule: Q01DX001 (ip), vehicle: carboxymethylcellulose (CMC)): 97 % of control | T/C (dose: 50.0 mg/kg/injection, schedule: Q01DX001 (ip), vehicle: carboxymethylcellulose (CMC)): 101 % of control

C=CCOCCC(=O)OCC=C
T/C (dose: 50.0 mg/kg/injection, schedule: Q01DX009 (ip), vehicle: Klucel (hydroxypropylcellulose) (HPC)): 95 % of control | T/C (dose: 100.0 mg/kg/injection, schedule: Q01DX009 (ip), vehicle: Klucel (hydroxypropylcellulose) (HPC)): 92 % of control | T/C [10]: 103 % of control | T/C [11]: 103 % of control

O=C(O)CNc1cc(S(=O)(=O)O)cc2cc(S(=O)(=O)O)c(N=Nc3cc(S(=O)(=O)O)cc4cc(S(=O)(=O)O)cc(O)c34)c(O)c12
T/C (dose: 100.0 mg/kg/injection, schedule: Q01DX001 (ip), vehicle: other): 101 % of control | T/C (dose: 200.0 mg/kg/injection, schedule: Q01DX001 (ip), vehicle: other): 104 % of control

Nc1cccc(C(O)c2ccccc2)c1 (centres undefined)
T/C [7]: 90 % of control | T/C [8]: 92 % of control | T/C [9]: 95 % of control

O=[N+]([O-])c1ccc(-c2ccc(-c3ccccc3)cc2)cc1
T/C (dose: 100.0 mg/kg/injection, schedule: Q01DX001 (ip), vehicle: acetone): 98 % of control | T/C (dose: 100.0 mg/kg/injection, schedule: Q04DX003 (ip), vehicle: acetone): 91 % of control | T/C (dose: 200.0 mg/kg/injection, schedule: Q01DX001 (ip), vehicle: acetone): 95 % of control | T/C (dose: 200.0 mg/kg/injection, schedule: Q04DX003 (ip), vehicle: acetone): 86 % of control | T/C (dose: 400.0 mg/kg/injection, schedule: Q01DX001 (ip), vehicle: acetone): 92 % of control | T/C (dose: 400.0 mg/kg/injection, schedule: Q04DX003 (ip), vehicle: acetone): 89 % of control
